According to patent US9901558B2, “Enhancer of survival of transplanted organ” (SBI Pharmaceuticals Co., Ltd., priority 2011, dated 2018):

Test system: heterotopic heart-transplanted model mice
Assay: Heterotopic homologous heart transplantation in mice (B10 donors to CBA recipients), heart graft beating/survival
Format: in vivo
Conditions: group (b), n = 5: both donor and recipient mice received ALA (100 mg/kg) alone
Source text: B10 mice (male, 10 weeks old on average, body weight: 20 to 25 g) were used as donors for the hearts to be transplanted. CBA mice (male, 10 weeks old on average, body weight: 20 to 25 g) were used as recipients to receive the hearts taken out of the donors. The procedures of the heterotopic homologous heart transplantation in mice followed the description of Experimental Manual of Organ Transplantation (Shujunsha Co., Ltd.), Paragraph 1, Part 2, 2-1-5 “Heterotopic Heart Transplantation in Mice”. Hereinafter, the procedures will be summarized.
The thorax of each donor mouse was opened under anesthesia and sufficiently perfused using 1 mL of saline supplemented with cold heparin, followed by excision of the heart. The excised heart was preserved in saline supplemented with cold heparin. The abdomen of each recipient mouse was opened under anesthesia, and the heart excised from the donor mouse was transplanted into the abdominal vena cava to prepare heterotopic heart-transplanted model mice.
The heterotopic heart-transplanted model mice were divided into groups (1) to (4) with administration patterns shown in Table 1 below. An experiment was conducted on the oral administration of the agent for promoting graft survival of the present invention. […]

SMILES: NCC(=O)CCC(=O)O [ALA, 5-aminolevulinic acid]
- long-term beating of heart graft: seen in none of these individuals
